Entries after “also recorded” stand apart in the source; their conditions may differ.
What was measured:
U-87 xenograft tumors = assay: In vivo and ex vivo NIR fluorescence imaging of U-87 xenograft tumor-bearing mice; conditions: co-administered with 10 nmol bivalent-IA-Cy5.5; 2, 4, 7, 24, 48 hrs
Description: U-87 MG Xenograft Model, Animal procedures were performed according to approved protocols. Female athymic nude mice (nu/nu), obtained from Charles River Laboratories, Inc. (Cambridge, Mass., USA) at 4-6 weeks of age, were injected subcutaneously in the right rear thigh with 1×10^7 U-87 MG cells suspended in 100 μL of phosphate-buffered saline (PBS). The cancer cells were harvested from sub-confluent cultures with 0.25% trypsin. Trypsinization was stopped with DMEM containing 10% FBS, after which the cells were washed once in serum-free medium and resuspended in PBS. Trypan blue exclusion was performed to ensure >90% cell viability. The tumor bearing mice were subjected to in vivo imaging studies when the tumors reached 0.4-0.6 cm in diameter.
In vivo Fluorescence Imaging of Tumors. ˜3×10^6 U-87 cells were implanted bilaterally in the posterior flanks of immunocompromised (nu/nu) mice and grown to ˜4 to 6 mm in diameter. Imaging was carried out in groups of five mice. After palpable masses were detected, animals were manually restrained and imaging probes were intravenously administered (lateral tail vein) using a 30-Ga needle via aseptic technique. Free Cy5.5 was prepared by dissolving the same Cy5.5NHS ester used for labeling the bivalent IA (GE Healthcare, Piscatway, N.J., USA) in phosphate buffered saline (PBS), pH 7.4 overnight at 4° C. Stock concentration of free Cy5.5 was measured optically using the molar extinction coefficient of 250000M-1 cm-1 using a UV-visible spectrophotometer at the maximum absorbance wavelength (675 nm) as recommended by the manufacturer. The bivalent-IA-Cy5.5 was weighed and confirmed by spectrophotometric measurement. Appropriate dilutions of each probe were made in PBS, pH 7.4, and each was filter sterilized (0.2-μm) immediately prior to use. All animals weighed between 18 and 20 g, and each received 10 nmol of imaging probe (in a total volume of 100 μL). Fluorescence imaging was performed with a small animal-dedicated optical imaging system (Xenogen/Caliper IVIS-200, Mountain View, Calif., USA) under continuous 1.5-2.0% isoflurane delivered through the integrated anesthesia nosecone system. At 2-, 4-, 7-, 24-, and 48-hrs' post-injection, images were acquired with the surface of the tissue of interest (tumor) approximating a perpendicular viewing angle relative to the camera line of sight; this viewing angle was also used for normal tissue selection.
For determining tumor contrast, mean fluorescence intensities of the tumor area (T) defined as radiance (photons/sec/cm2/sr) at the right rear leg of the animal and of the area (N) at the right flank (normal tissue) were calculated by region-of-interest (ROI) analysis using the corresponding photograph of each image acquisition dataset to identify the tumor region. Pre-injection imaging was also performed to determine baseline autofluorescence. For competitive inhibition studies, mice (n=3) were co-injected with 500 nmol bivalent IA and 10 nmol of imaging probe (bivalent-IA-Cy5.5) following the same procedure described above. Free Cy5.5 studies were performed in the same manner following the intravenous injection of 10 nmol. For ex vivo biodistribution imaging, two tumor-bearing mice were imaged 24 hrs post injection of bivalent-IA-Cy5.5 and thereafter euthanized per IACUC protocol (CO2 and cervical dislocation). Tumor and major internal organs (heart, lung, liver, spleen, gastrointestinal tract, and kidneys) were harvested, weighed, and imaged against a black paper background. All image acquisition parameters were as follows: epi-illumination; Cy5.5 Em/Ex; Bin: (HR)4, FOV: 12.9; f2; 0.2 sec.

HUVECs = assay: In vitro cytotoxicity (MTT) assay, HUVECs; assay type: cell-based, human; conditions: 1 μg/mL to 100 μg/mL, 24 hr
Description: For cell cytotoxicity assay, the cells were then seeded into 96-well flat-bottomed tissue-culture plates at 1×10^4 cells/well and incubated for 24 hr in humidified atmosphere of 5% (vol./vol.) CO2 at 37° C. in the presence of each compound. The multivalent compound (monomer, dimer, and trimer) sample solutions were diluted with culture medium (1% FBS added) to obtain concentrations in the range of 0.1-100 μg/mL for each compound. The cytotoxic effects of monomer, dimer and trimer compounds were evaluated by adding 100 μL of each sample in 100 μL culture medium to each well. After 24-hrs' incubation, cell viability was evaluated by mitochondrial conversion of 3-(4,5-dimethylthiazol-2-yl)-2,5-diphenyl tetrazolium bromide (MTT assay) (Allison et al., 1985).

Compound	competitive inhibition of bivalent-IA-Cy5.5 tumor fluorescence signal (U-87 xenograft tumors)	cytotoxicity on HUVEC cells (HUVECs)
NC(CCCCCC(=O)NCCS(=O)(=O)N[C@@H](CNC(=O)c1ccc(OCCNC2=NCCCN2)cc1)C(=O)O)C(=O)NCCS(=O)(=O)N[C@@H](CNC(=O)c1ccc(OCCNC2=NCCCN2)cc1)C(=O)O (some centres unmarked) [bivalent IA]	Significant blocking of tumor fluorescence signal; also recorded: reduced at all timepoints measured	
O=C(NCCS(=O)(=O)N[C@@H](CNC(=O)c1ccc(OCCNC2=NCCCN2)cc1)C(=O)O)OCCN(CCOC(=O)NCCS(=O)(=O)N[C@@H](CNC(=O)c1ccc(OCCNC2=NCCCN2)cc1)C(=O)O)CCOC(=O)NCCS(=O)(=O)N[C@@H](CNC(=O)c1ccc(OCCNC2=NCCCN2)cc1)C(=O)O [IA trimer]		increased cytotoxicity over the IA-monomer and dimer

— US9833520B2, “Labeled, non-peptidic, multivalent integrin antagonist compounds; methods for synthesis and uses thereof” (The Methodist Hospital Research Institute, priority 2011, dated 2017)
